Experimental data taken from patent publication US12485187B2, “Method for improving retroviral transduction and gene editing in hematopoietic stem cells using clyclosporin H and UM171” (Ospedale San Raffaele S.R.L, priority 2017, dated 2025).

Legend:
[1] = tested on: human CD34+ HSPCs; details: for effect on LV transduction of combining the compound with CsH: hCB- and mPB-derived HSPC, LV MOI 1 or 10
[2] = tested on: CB-derived CD34+ HSPCs; details: Wang et al. 2014; cited from earlier work
[3] = tested on: human HSPCs; assay: Colony-forming cell assay; format: cell-based
Description: Colony-forming cell assays were performed by plating 8×10^2 human HSPCs transduced in the presence of the different compounds in a methylcellulose-based medium (Methocult GF4434; Stem Cell Technologies). Fifteen days later colonies were scored by light microscopy for colony numbers and morphology. CFU-E and BFU-E were scored as erythroid colonies, while CFU-G, CFU-M and CFU-GM and CFU-GEMM were scored as myeloid colonies. Moreover, single colonies were plucked for molecular analysis.

## CO[C@H]1C[C@@H]2CC[C@@H](C)[C@@](O)(O2)C(=O)C(=O)N2CCCC[C@H]2C(=O)O[C@H]([C@H](C)C[C@@H]2CC[C@@H](O)[C@H](OC)C2)CC(=O)[C@H](C)/C=C(\C)[C@@H](O)[C@@H](OC)C(=O)[C@H](C)C[C@H](C)/C=C/C=C/C=C/1C [rapamycin, Rapamycin, reference compound]
[1]; BM-derived CD34+ cells, single hit IDUA/ARSA-LV vs two-hit standard (MOI 100)
  VCN in vitro: comparable to the two-hit gold standard
[1]; BM-derived CD34+ cells, single hit vs one-hit control without drugs
  transduction efficiency of clinical-grade IDUA and ARSA-LV: able to increase transduction efficiency
[1]
  effect on LV transduction of combining the compound with CsH: additive
[2]
  LV integration site profile in human HSPCs: not to impact the LV integration site profile in human HSPCs
[3]; BM-derived CD34+ cells transduced with IDUA or ARSA LV
  colony-forming capacity: no alterations in colony-forming capacity were observed

## CCCCC[C@H](O)/C=C/[C@H]1[C@H](O)CC(=O)[C@@H]1C/C=C\CCCC(=O)O [prostaglandin E2, Prostaglandin E2, reference compound]
[1]
  effect on LV transduction of combining the compound with CsH: additive
[3]; mPB-CD34+ cells, IDUA-LV MOI 50, vs control
  colony-forming capacity: No differences in colony-forming capacity
